The text below walks through data of patent US20250066359A1, “SOMATOSTATIN RECEPTOR SUBTYPE 5 ANTAGONISTS, AND PHARMACEUTICAL COMPOSITION AND USE THEREOF” (SHANGHAI INSTITUTE OF MATERIA MEDICA, CHINESE ACADEMY OF …, priority 2021, published 2025).

The target in one test is T1, hSSTR5 (Homo sapiens, UniProt P35346).
T1 construct: expressed in transfected cells; host or cells: CHO cells co-expressing Gα16 (hSSTR5-CHO-Gα16)
Nature of the test: SSTR5 antagonistic activity in vitro by calcium flow detection (hSSTR5-CHO-Gα16 cells). Type of test: cell-based. Particulars: for IC50: hSSTR5-CHO-Gα16 cells, 100 nM Somatostatin-14 agonist, Fluo-4 fluorescence 525 nm; for SSTR5 antagonistic activity (in words): summary of Table 1. An excerpt: (§1) Testing SSTR5 antagonistic activity in vitro by Calcium flow detection method Experimental principle: After the receptor binds to the ligand and is activated, it can cause the activation of Gα16 protein, which further activates phospholipase C(PLC) to produce IP3 and DAG. IP3 can bind to the IP3 receptors on the endoplasmic reticulum and mitochondria in the cell, thereby causing the release of intracellular calcium. Therefore, measuring the changes in intracellular calcium can be used in the method to detect the activation state of hSSTR5. Fluo-4/AM is a calcium fluorescent probe indicator used to measure calcium ions. As a non-polar lipid-soluble compound, after it enters the cell, the AM group therein dissociates, and Fluo-4 is released under the action of cellular lipase; because Fluo-4 is a polar molecule and is not easy to pass through the lipid bilayer membrane, it can keep Fluo-4 in the cell fora longtime. Finally, the level of Ga protein activation can be reflected by measuring the intensity of the excited fluorescence. Somatostatin, an agonist of SSTR5, can activate SSTR5 receptors and greatly increase the calcium flow response. The SSTR5 antagonist to be tested can inhibit the agonist activity of the SSTR5 receptor and reduce the calcium increased flow response of the receptor stimulated by the agonist.
(§2) • (1) The hSSTR5-CHO-Gα16 and mSSTR5-CHO-Gα16 cell lines stably expressing hSSTR5 or mSSTR5 receptors were seeded at a density of 30,000/well in a 96-well plate and cultured in a 37° C. incubator overnight. • (2) The cells was aspirated off the culture medium, added with freshly prepared dye at 40 μL/well, and incubated in a 37° C. incubator for 45 minutes. • (3) After the dye was aspirated and discarded, the cells were washed with freshly prepared calcium buffer and the culture medium was replaced with 50 μL of calcium buffer. • (4) The SSTR5 agonist Somatostatin-14 was diluted and mixed evenly with calcium buffer. • (5) Detection was performed using a Flextation instrument. Starting from the 15th second, 25 μL of the pre-prepared agonist was automatically added by the instrument, and the fluorescence value at 525 nm was read.

In another test the target is T2, mSSTR5 (Mus musculus, UniProt O08858).
T2 construct: expressed in transfected cells; host or cells: CHO cells co-expressing Gα16 (mSSTR5-CHO-Gα16)
T2 sequence (O08858 1-362): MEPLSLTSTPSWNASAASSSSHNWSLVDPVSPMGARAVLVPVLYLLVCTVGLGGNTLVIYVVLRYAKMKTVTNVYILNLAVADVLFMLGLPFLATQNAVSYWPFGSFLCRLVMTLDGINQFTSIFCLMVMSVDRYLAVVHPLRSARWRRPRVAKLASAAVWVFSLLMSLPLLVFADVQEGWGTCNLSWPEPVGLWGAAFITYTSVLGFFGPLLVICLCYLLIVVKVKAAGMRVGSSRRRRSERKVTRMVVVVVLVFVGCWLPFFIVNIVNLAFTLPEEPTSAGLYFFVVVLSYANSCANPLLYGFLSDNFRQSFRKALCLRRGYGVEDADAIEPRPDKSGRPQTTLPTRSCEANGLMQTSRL
Nature of the test: SSTR5 antagonistic activity in vitro by calcium flow detection (mSSTR5-CHO-Gα16 cells). Particulars: 100 nM Somatostatin-14 agonist, Fluo-4 fluorescence 525 nm. Type of test: cell-based.
Excerpt: as §1, §2

Another test has as its system C57BL/6J mice. Nature of the test: Gallbladder emptying promotion experiment. It counts as in vivo, mouse. Particulars: 30 mg/kg by gavage, egg yolk 1 h later, gallbladder removed after 15 min, versus control group, FIG. 2. On the procedure:
Experimental method: Before the experiment, 8-10 weeks old C57BL/6J mice were fasted for 17-18 hours and allowed to drink water freely. The mice were then divided into groups according to weight (n=4), and were gavaged with an aqueous solution of the compound prepared in Example 34 (30 mg/kg) or an equal volume of distilled water (control group), with a dosing volume of 10 mL/kg. At one hour after administration, 200 microliters of egg yolk were orally administered to the mice. After 15 minutes, the mice were killed by dislocation and dissected, and the gallbladder was removed and the bile was squeezed out and weighed with an analytical balance.

The next test deals with SSTR5. Nature of the test: Calcium flow response to the SSTR5 agonist (choice of agonist concentration). Type of test: cell-based. Conditions: CHO-Gα16 cells expressing SSTR5, cell line (h or m) not stated.
Excerpt: as §1, with “agonist. […]” for “agonist.”

T1 sequence (P35346 whole entry): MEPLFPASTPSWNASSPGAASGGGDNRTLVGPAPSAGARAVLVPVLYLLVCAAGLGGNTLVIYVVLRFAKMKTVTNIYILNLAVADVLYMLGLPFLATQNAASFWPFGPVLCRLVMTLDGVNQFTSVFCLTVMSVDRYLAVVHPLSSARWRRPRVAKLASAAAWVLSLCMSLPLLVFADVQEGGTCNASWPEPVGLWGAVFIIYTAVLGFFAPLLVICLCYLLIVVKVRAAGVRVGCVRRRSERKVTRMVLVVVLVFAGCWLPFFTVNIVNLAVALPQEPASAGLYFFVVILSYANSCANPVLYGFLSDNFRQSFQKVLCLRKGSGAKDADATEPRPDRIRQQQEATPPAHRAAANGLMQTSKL

As a reminder, the IC50 is the midpoint of a concentration-inhibition curve. In the case of `CCOc1cc(CN2CCC(C3CN(S(=O)(=O)c4ccc(OC(F)(F)F)cc4)C3)CC2)cc(OCC)c1-c1ccc(F)cc1` [Example 14], the IC50 on hSSTR5 and on mSSTR5 was 0.1 to 50 nM each time.

On to `CCOc1cc(CN2CCC3(CC2)CN(c2ccc(C(=O)O)cc2F)C3)cc(OCC)c1-c1ccc(F)cc1` [Example 27, 4-(7-((2,6-diethoxy-4′-fluoro-[1,1′-biphenyl]-4-yl)methyl)-2,7-diazaspiro[3.5]nonan-2-yl)-3-fluorobenzoic acid], for which, on hSSTR5, the IC50 was 0.1 to 50 nM and the “SSTR5 antagonistic activity (in words)” value is “potent SSTR5 antagonistic activity”. Also, the IC50 on mSSTR5 is 0.1 to 50 nM.

Regarding `CCOc1cc(CN2CCC3(CC2)CN(c2ccc(C(=O)O)c(OC)c2)C3)cc(OCC)c1-c1ccc(F)cc1` [Example 28, 4-(7-((2,6-diethoxy-4′-fluoro-[1,1′-biphenyl]-4-yl)methyl)-2,7-diazaspiro[3.5]nonan-2-yl)-2-methoxybenzoic acid], the IC50 on hSSTR5 and on mSSTR5 was 0.1 to 50 nM each time. Further, the “SSTR5 antagonistic activity (in words)” value on hSSTR5 was “potent SSTR5 antagonistic activity”.

Turning to `CCOc1cc(CN2CCC3(CC2)CN(c2ccc(C(=O)O)c(F)c2)C3)c(C2CC2)cc1C` [Example 34, 4-(7-(2-cyclopropyl-5-ethoxy-4-methylbenzyl)-2,7-diazaspiro[3.5]nonan-2-yl)-2-fluorobenzoic acid], the “emptying of the mouse gallbladder (bile weight)” value in the test with C57BL/6J mice is on record as “significantly promote the emptying of the mouse gallbladder”.

As usually defined, the EC50 is the concentration giving half of the maximal effect. Turning to Somatostatin-14, the EC50 in the test with SSTR5 is 9.7 nM.
